Like-named read-outs stand apart in the source and are kept apart here.
Key:
[1] = system: α-naphthylisothiocyanate-induced liver damage; test: Effect on α-naphthylisothiocyanate-induced liver damage (cholangioatresia type); type: in vivo, Male Wistar rats; details: p.o., blood after 24 hr
Method: Effect on α-naphthylisothiocyanate-induced liver damage (cholangioatresia type)
Male Wistar rats weighing 190-220 g were used. After rats had fasted for 18 hr, α-naphthylisothiocyanate (ANIT) dissolved in olive oil (1.5% w/v) was given orally to them at 30 mg/kg body weight. The compound under test was administered orally 30 min before and 6 and 12 hr after administration of ANIT and blood was collected after 24 hr. Plasma GOT, GPT and bilirubin activities were determined and the results given in Table 5 show the inhibition rate compared with controls (calculation by the formula shown in Experiment 1).

[2] = system: carbon tetrachloride (CCl4) induced liver damage; test: Effect on carbon tetrachloride (CCl4) induced liver damage (liver cell necrosis type); type: in vivo, Male Wistar rats; details: for inhibition in vivo at 0.02 mg/kg: Rattus norvegicus, sc, 24 h, s.c., 20 μg/kg
Method: Effect on carbon tetrachloride (CCl4) induced liver damage (liver cell necrosis type)
Male Wistar rats weighing 180-220 g were used. Rats were dosed intraperitoneally with CCl4 dissolved in olive oil (5%, w/v) at a volume of 500 μl/kg after 18 hr starvation. The compound under test was administered orally (p.o.) or subcutaneously (s.c.) 6 and 12 hr after CCl4 injection in rats and blood was collected after 24 hr. Plasma glutamic oxaloacetic transaminase (GOT) and glutamic pyruvic transaminase (GPT) activities were determined by ultraviolet absorbance methods (optimised method based on the recommendations of the Deutsche Gesellschaft fur Klinische Chemie). The effects of the compounds tested were assessed by the inhibition rate in comparison with controls. Inhibition rate was calculated by the following formula. [formula] The results obtained are shown in the following Tables 1A and 1B for compounds of the general formula: [drawing 10] wherein R, R^1 and --X--Y--Z-- have the meanings indicated.
In Tables 1A, 1B and 2 to 5 hereinafter the dose shown in the amount given at each administration of the compound under test.

[3] = system: p-acetoamidophenol-induced liver damage; test: Effect on p-acetoamidophenol-induced liver damage (liver glutathione decrease type); type: in vivo, Male Wistar rats; details: p.o., 50 μg/kg; blood after 24 hr
Method: Effect on p-acetoamidophenol-induced liver damage (liver glutathione decrease type)
Male Wistar rats weighing 180-220 g were used. After the rats had fasted for 18 hr, p-acetoamidophenol (2.5 g/kg) was given orally to them. The compound under test was administered orally 30 min before and 6 and 12 hr after administration of p-acetoamidophenol and blood was collected after 24 hr. Plasma GOT and GPT activities were determined in the manner described in experiment 1 and the results given in Table 4 show the inhibition rate compared with controls (calculation by the formula shown in Experiment 1)

[4] = system: D(+)-galactosamine hydrochloride-induced liver damage; test: Effect on D(+)-galactosamine hydrochloride-induced liver damage (hepatitis type); type: in vivo, Male Wistar rats; details: p.o., 100 μg/kg
Method: Effect on D(+)-galactosamine hydrochloride-induced liver damage (hepatitis type)
Male Wistar rats weighing 180-220 g were used. After the rats had fasted for 18 hr, 250 mg/kg galactosamine hydrochloride was administered to them intraperitoneally three times at 4 hr intervals. The compound under test was administered orally 6, 12, 18, 24, 30, 36, 42 and 48 hr after the dose of D(+)-galactosamine hydrochloride and blood was collected after 36, 48 and 54 hr. Plasma GOT and GPT activities were determined in the manner described in Experiment 1 and the effects were shown by the inhibition rate compared with controls (calculation by the formula shown in Experiment 1).

[5] = system: alcohol-induced acute liver damage; test: Effect on alcohol-induced acute liver damage; type: in vivo, Male Wistar rats; details: p.o., 50 μg/kg; blood after 24 hr
Method: Effect on alcohol-induced acute liver damage
Male Wistar rats weighing 180-220 g were used. After the rats had fasted for 18 hr, 50% v/v ethanol solution was given orally to them at a volume of 12 ml/kg. The compound under test was administered orally 30 min before and 2 and 8 hr after administration of ethanol and blood was collected after 24 hr. Plasma GOT and GPT activities were determined in the manner described in Experiment 1. Effects were shown by the inhibition rate compared with controls (calculation by the formula shown in Experiment 1).

[6] = system: ethionine-induced acute pancreatitis; test: Effect on ethionine-induced acute pancreatitis; type: in vivo, Male TCL-ICR mice; details: s.c., 5 μg/kg
Method: Effect on ethionine-induced acute pancreatitis
Male TCL-ICR mice from 4 weeks of age were used. After normal feeding the mice were given a choline-deficient diet (CD diet) for 2 days. Further after having fasted for 24 hr, they were given a choline-deficient diet containing 5% DL-ethionine (CDE diet) for 2 days, counted as days 1 and 2. The mice were then given the CD diet for 1 day and thereafter fed normally. Compound number 6 was administered subcutaneously to them at 5 μg/kg, twice daily, during the CDE diet on days 1 and 2, and then administered in the same manner once daily on days 3, 4 and 5. The effect of the compound under test on the survival rate at day 9 was determined. Further details of the test method appear in Gastroenterology, 78, 777 (1980).

Acute toxicity test = details: mouse, in vivo; oral, mice observed for 14 days
Method: Male JCL-ICR mice (non SPF mice) from 7 weeks of age were used. The compound under test was dissolved in 5% v/v ethanol containing 0.4% w/v Tween 80 (Tween is a registered trademark) and administered orally to the mice. […] The deaths observed were all within 72 hrs after treatment.

[7] = system: acute galactosamine-induced liver damage; details: Stachur et al; cited from earlier work
[8] = system: carbon tetrachloride-induced liver cell necrosis; details: Stachur et al; cited from earlier work
thrombus = details: cited from earlier work
[9] = system: blood platelet aggregation; details: cited from earlier work
[10] = system: diet-induced acute pancreatitis; details: mice; Manabe et al; cited from earlier work
[11] = system: isolate perfused cat liver; details: Araki et al; cited from earlier work
[12] = system: endotoxin-induced lung injury; details: sheep; Demling et al; cited from earlier work
[13] = system: arachidonic acid-induced blood platelet aggregation; details: human; cited from earlier work
artery = details: cited from earlier work
endotoxin shock = details: dog; Fletcher et al; cited from earlier work

SMILES: CCCC1CCC([C@H](O)/C=C/[C@H]2[C@H](O)CC(=O)[C@@H]2CC(=O)CCCCC(=O)OC)C1 (single isomer, unassigned) [Compound 6, 15-(3-Propylcyclopentyl)-16,17,18,19,20-pentanor-6-oxo-PGE1 methyl ester]
- inhibition GOT ([1]; 20 μg/kg): 14.6%
- inhibition GPT ([1]; 20 μg/kg): 5.4%
- inhibition bilirubin ([1]; 20 μg/kg): 18.2%
- inhibition GOT ([1]; 50 μg/kg): 44.6%
- inhibition GPT ([1]; 50 μg/kg): 49.8%
- inhibition bilirubin ([1]; 50 μg/kg): 24.9%
- inhibition GOT ([1]; 100 μg/kg): 67.8%
- inhibition GPT ([1]; 100 μg/kg): 63.6%
- inhibition bilirubin ([1]; 100 μg/kg): 50.5%
- inhibition in vivo at 0.02 mg/kg ([2]; plasma GOT after 24 hr, read-out: inhibition rate GOT): 54.1%
- inhibition in vivo at 0.02 mg/kg ([2]; plasma GPT after 24 hr, read-out: inhibition rate GPT): 43.2%
- inhibition rate GOT ([2]; p.o., 100 μg/kg, plasma GOT after 24 hr): 71.3%
- inhibition rate GPT ([2]; p.o., 100 μg/kg, plasma GPT after 24 hr): 67.5%
- inhibition GOT [3]: 33.2%
- inhibition GPT [3]: 60.4%
- inhibition rates GOT 36 hr after ([4]; 36 hr): 37.2%
- inhibition rates GPT 36 hr after ([4]; 36 hr): 29.4%
- inhibition rates GOT 48 hr after ([4]; 48 hr): 46.3%
- inhibition rates GPT 48 hr after ([4]; 48 hr): 38.2%
- inhibition rates GOT 54 hr after ([4]; 54 hr): 39.1%
- inhibition rates GPT 54 hr after ([4]; 54 hr): 39.1%
- inhibition rate GOT [5]: 24.5%
- inhibition rate GPT [5]: 35.8%
- protection against death at day 9 from CDE diet [6]: significant protection against death
- treated mice dead at day 9 ([6]; twice daily days 1-2, once daily days 3-5, untreated control 12 of 16 dead): 3 of 16
- LD50 at 336 h (Acute toxicity test): 10 to 20 mg/kg

SMILES: CCCCC(C)(C)[C@H](O)/C=C/[C@H]1[C@H](O)CC(=O)[C@@H]1C/C=C\CCCC(=O)O [16,16-dimethyl-PGE2]
- effect on acute galactosamine-induced liver damage [7]: prevents
- effect on carbon tetrachloride-induced liver cell necrosis [8]: prevents

SMILES: CCCCC[C@H](O)/C=C/[C@H]1[C@H](O)CC(=O)[C@@H]1CCCCCCC(=O)O [PGE1, Prostaglandin E1]
- effect on thrombus (thrombus): removes the thrombus and prevents thrombosis
- effect on blood platelet aggregation [9]: inhibits

SMILES: CCCCC[C@H](O)/C=C/[C@H]1[C@H](O)CC(=O)[C@@H]1C/C=C\CCCC(=O)O [PGE2]
- effect against diet-induced acute pancreatitis [10]: effective

SMILES: CCCCC[C@H](O)/C=C/[C@@H]1[C@H]2C/C(=C/CCCC(=O)O)O[C@H]2C[C@H]1O [PGI2, (5Z,13E)-(9α,11α,15S)-6,9-epoxy-11, 15-dihydroxyprosta-5,13-dienoic acid]
- effect on hypoxia in the isolate perfused liver [11]: prevents and is useful in treating
- effect on endotoxin-induced lung injury [12]: prevents and is useful in treating
- effect on arachidonic acid-induced blood platelet aggregation [13]: strongly inhibits
- activity on the artery (artery): relaxing activity
- effect on endotoxin shock (endotoxin shock): prevents and is useful in treating
